Measured values reported in BigSolDB 2.1.

| solubility (mole fraction) (in n-hexane, 293.15 K) | solubility (mole fraction) (in n-hexane, 298.15 K) | solubility (mole fraction) (in n-hexane, 303.15 K) | solubility (mole fraction) (in n-hexane, 308.15 K) | solubility (mole fraction) (in n-hexane, 313.15 K) | solubility (mole fraction) (in n-octanol, 293.15 K) | solubility (mole fraction) (in n-octanol, 298.15 K) | solubility (mole fraction) (in n-octanol, 303.15 K) | solubility (mole fraction) (in n-octanol, 308.15 K) | solubility (mole fraction) (in n-octanol, 313.15 K) | SMILES |
| --- | --- | --- | --- | --- | --- | --- | --- | --- | --- | --- |
| 1.84e-05 | 2.22e-05 | 2.73e-05 | 3.2e-05 | 3.88e-05 | 0.00674 | 0.00868 | 0.0108 | 0.0133 | 0.016 | CCc1cc(C(N)=S)ccn1 |
| 2.97e-06 | 3.73e-06 | 4.47e-06 | 5.47e-06 | 6.67e-06 | 0.00347 | 0.00431 | 0.00516 | 0.0062 | 0.00744 | NC(=S)c1ccncc1 |
| 0.000199 | 0.000248 | 0.000325 | 0.000404 | 0.000518 | 0.00952 | 0.012 | 0.0147 | 0.0183 | 0.0222 | NC(=S)c1ccccn1 |
